According to US20250281453A1, “COMBINATION THERAPIES COMPRISING QTX125” (QUIMATRYX, S.L., priority 2022, published 2025):
pEC50: −log10 of the molar value.

Key:
[1] = Genotoxicity (clastogenicity, aneugenicity); conditions: unlike other histone deacetylase inhibitors
[2] = test system: HCT-116 colonic cancer cells; assay: QTX125-containing combination therapy, hexosaminidase cell viability; format: cell-based; conditions: for combination index (C.I.): HCT-116; for pEC50: Homo sapiens, HCT-116, HCT-116
Procedure: To assess the oncolytic efficacy of QTX125-containing combination therapies in vitro, colonic, pancreatic, hepatic and ovarian tumour cells were administered sorafenib, gemcitabine or bortezomib at EC25, EC50 and EC75 doses. QTX125 was co-administered in order to produce a dose response curve.
To prepare cells for viability assays, cells were transferred into 96 well tissue culture plates (Cultek), and resuspended in 100 µL at the following densities: 10,000 cells/well (Hep-G2 and MiaPaCa-2), 5000 cells/well (Panc-1 and SK-OV-3) or 3000 cells/well (HCT-116). Following 24 hours of incubation, media was removed and replaced with 100 µL media spiked with QTX125 and the test chemotherapeutic agents. Stock solutions for the agents used in this study are shown below in Table 1. Cells were incubated for a further 72 hours before cell viability was assessed using both ALAMAR® and hexosaminidase assays.
For the hexosaminidase assay, media containing QTX125 and the test chemotherapeutic agents was removed, and cells were washed once with PBS. 60 μL of substrate solution (containing: 7.5 mM p-nitrophenol-N-acetyl-beta-D-glucosamide [Sigma N-9376], 0.1 M sodium citrate, pH 5.0 and 0.25% Triton X-100) was added to each well and cells were incubated at 37° C. for at least 1 hour. Incubating cells in this manner causes the substrate solution to become bright yellow, at which point 90 μL of developer solution (containing 50 mM Glycine pH 10.4 and 5 mM EDTA) was added to each well. Absorbance at 410 nm was recorded using a plate reader.
Control values were normalised to 100% and percentage (%) viability was calculated. Data were used to plot log dose-response curves using a sigmoid dose-response (variable slope) equation. EC50 values were obtained using Equation 1, where ‘X’ is the logarithmic concentration; ‘Y’ is the response output and it is assumed that Y starts at bottom of the graph and reaches the top with an overall sigmoid shape.
Cls were obtained using Equation 2, where (Dm) 1 is the ECx concentration of QTX125 and (D) 1 is the ECx concentration of QTX125 in the presence of sorafenib, gemcitabine or bortezomib.
In order to assess the oncolytic efficacy of QTX125-containing combination therapies, monotherapy EC25, EC50 and EC75 doses for sorafenib, gemcitabine and bortezomib were calculated (as per Experiment 3) and administered to wells at these fixed concentrations. QTX125 was co-administered at a range of concentrations, in order to plot a dose-response curve such that the EC50 dose of QTX125 could be calculated in the presence of sorafenib/gemcitabine/bortezomib. QTX125 was administered to cells at a starting high-dose, and a 1:1 dilution was completed thereafter. In this part of the study, only the hexosaminidase assay was employed to assess cell viability following treatment with QTX125-containing combination therapies.
It should be noted that it was not possible to determine the appropriate concentrations for gemcitabine in all cell lines tested. In cells resistant to gemcitabine, nominal concentrations were used in place of EC25, EC50 and EC75 doses (e.g., nominal doses of 1, 10 and 100 µM were used in Panc-1 and Hep-G2 cells).

HDAC 6 = target: T1, HDAC 6 (Homo sapiens, UniProt Q9UBN7); conditions: cited from earlier work
T1 sequence (Q9UBN7 1-1215): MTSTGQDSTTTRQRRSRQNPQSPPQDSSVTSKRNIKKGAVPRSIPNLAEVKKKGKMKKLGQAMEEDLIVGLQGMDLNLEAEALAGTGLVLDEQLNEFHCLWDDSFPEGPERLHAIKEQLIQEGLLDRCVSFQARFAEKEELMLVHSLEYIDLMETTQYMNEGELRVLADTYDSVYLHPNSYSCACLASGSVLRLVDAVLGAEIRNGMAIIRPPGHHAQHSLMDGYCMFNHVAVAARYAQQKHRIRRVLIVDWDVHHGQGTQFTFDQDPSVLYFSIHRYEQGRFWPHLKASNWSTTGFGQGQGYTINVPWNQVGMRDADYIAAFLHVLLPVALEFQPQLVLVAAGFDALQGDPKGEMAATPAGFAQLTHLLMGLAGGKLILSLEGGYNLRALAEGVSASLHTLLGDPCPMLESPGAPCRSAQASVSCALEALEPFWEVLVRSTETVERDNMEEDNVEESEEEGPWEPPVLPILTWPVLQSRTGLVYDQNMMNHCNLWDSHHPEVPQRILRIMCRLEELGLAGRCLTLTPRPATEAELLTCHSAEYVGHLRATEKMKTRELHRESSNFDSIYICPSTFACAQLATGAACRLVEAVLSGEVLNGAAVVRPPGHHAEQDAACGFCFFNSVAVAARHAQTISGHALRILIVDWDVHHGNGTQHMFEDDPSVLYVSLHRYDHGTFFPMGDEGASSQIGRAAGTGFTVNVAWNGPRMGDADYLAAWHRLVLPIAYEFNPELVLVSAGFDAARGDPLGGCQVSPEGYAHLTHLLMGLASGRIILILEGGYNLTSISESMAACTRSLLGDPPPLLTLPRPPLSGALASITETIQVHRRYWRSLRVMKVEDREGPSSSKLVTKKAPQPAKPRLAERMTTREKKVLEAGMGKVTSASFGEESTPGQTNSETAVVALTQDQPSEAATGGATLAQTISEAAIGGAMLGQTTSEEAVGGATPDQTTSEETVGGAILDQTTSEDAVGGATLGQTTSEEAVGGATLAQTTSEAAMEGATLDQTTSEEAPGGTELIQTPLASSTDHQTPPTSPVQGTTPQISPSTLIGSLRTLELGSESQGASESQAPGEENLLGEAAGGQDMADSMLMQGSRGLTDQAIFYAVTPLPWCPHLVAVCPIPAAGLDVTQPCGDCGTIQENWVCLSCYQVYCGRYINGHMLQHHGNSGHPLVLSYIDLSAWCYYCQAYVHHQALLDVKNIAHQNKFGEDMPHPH

[3] = + bortezomib at EC25 dose (0.005 μM)
[4] = + bortezomib at EC50 dose (0.007 μM)
[5] = + bortezomib at EC75 dose (0.01 μM)
[6] = + gemcitabine at EC25 dose (0.001 μM)
[7] = + sorafenib at EC25 dose (2 μM)
[8] = + sorafenib at EC50 dose (3.6 μM)
[9] = + sorafenib at EC75 dose (6.5 μM)

In the case of `O=C(NO)c1ccc(CNC(=O)c2[nH]c(-c3ccc(O)cc3)cc2-c2ccoc2)cc1` [QTX125, 3-(3-Furyl)-N-{4-[(hydroxyamino)carbonyl]benzyl}-5-(4-hydroxyphenyl)-1 Hpyrrole-2-carboxamide], the “genotoxicity, in particular clastogenicity or aneugenicity” value [1] was “no evidence of genotoxicity”, the “combination index (C.I.)” value [2, 3] was 1.0 arbitrary units and the “combination index (C.I.)” value [2, 4] was 1.1 arbitrary units. For the same molecule, the “combination index (C.I.)” value [2, 5] was 0.9 arbitrary units, the “combination index (C.I.)” value [2, 6] was 1.1 arbitrary units and the “combination index (C.I.)” value [2, 7] was 0.9 arbitrary units. For the same molecule, the “combination index (C.I.)” value [2, 8] was 0.9 arbitrary units, the “combination index (C.I.)” value [2, 9] was 0.9 arbitrary units and the pEC50 [2, 3] was 5.61. The pEC50 [2, 4] was 5.60, the pEC50 [2, 5] was 5.67 and the pEC50 [2, 6] was 6.49. It also gave a pEC50 [2, 7] of 5.63, a pEC50 [2, 8] of 5.66 and a pEC50 [2, 9] of 5.65. It also gave a pEC50 ([2]; no second agent (control of Table 5.1.1)) of 5.59, a pEC50 ([2]; no second agent (control of Table 5.1.2)) of 6.52 and a pEC50 ([2]; no second agent (control of Table 5.1.3)) of 5.63. The “HDAC 6 inhibition” value (HDAC 6) was “highly selective and highly potent”.
